Measurements as given in PMC5897276, “External radiation exposure, excretion, and effective half-life in ^177Lu-PSMA-targeted therapies” (EJNMMI Research, 2018).
“And” between values parts separate entries of the source, which are not always exact repeats. Equal entries are not always repeated. Where two headings read alike, the source gives them in different places.

Assays:
[1] = design: method as in PMID 27089552; details: group of 7 patients; cited from earlier work
[2] = Estimation of dose to the public after discharge of the patient (Eq. 4); assay type: in vivo, patients
Excerpt: The determination of the expected dose D to the public requires knowledge of the dose rate DR at the time point of the release of the patient and of the effective half-life T1/2eff. The dose D can then be calculated according to the following equation:4 D=DR∙T1/2eff/ln2.
This equation was originally recommended by the German Commission on Radiological Protection to conservatively estimate the dose to the public after iodine-131 therapy.
The data were fitted by a mono-exponential curve, and the effective half-life was calculated for the different time points: 24, 48, and 72 h (only from the data of Department 2). […] For all comparisons, the time point 48 h was chosen as the reference, because it is standard that the patients are released from the therapy ward after 48 h. Subsequently, Eq. 4 was used to determine the dose D to the public after the discharge of the patient for different time points of release (24, 48, and 72 h p. i.), substituting T1/2eff by T1/2ind (individual half-life of each patient), T1/2phys (physical half-life of ^177Lu), and T1/2max (maximum of the calculated effective half-life of the patient cohort) for different calculations. In addition, a correlation analysis (Spearman and Pearson) of the dose rate and administered activity was performed.

[3] = Whole-body activity measurement with external gamma probe and analysis of excreted activity; assay type: in vivo, patients; details: for Excreted activity Aex between given time point and previous time point, max / Excreted activity Aex between given time point and previous time point, mean / Excreted activity Aex between given time point and previous time point, min / Overall excreted activity as percentage of administered activity, max / Overall excreted activity as percentage of administered activity, mean / Overall excreted activity as percentage of administered activity, min: 25 patients (Department 2)
Description: The analysis of the excretion of unbound ^177Lu-PSMA ligands and lutetium-177 was performed indirectly by measuring the remaining activity within the body of the patients at different time points with an external gamma probe. This has been proven to be a fast, simple, and robust method to estimate the activity within the body of the patient. The difference compared with the expected activity that can be calculated directly by the physical decay of the administered activity is assumed to be equivalent to the excreted activity.
The measurements were carried out in Department 2, using a cohort of 25 patients (see Table 1). The whole-body activity was measured at 0 h (before voiding, reference) and approximately at 2, 4, 12, 24, 48, and 72 h after the administration of ^177Lu-PSMA-617.
The remaining activity AWB in the patient at the given time point ti was determined by the following equation:1 AWBti=CAti⋅CPti/CFP, where cA(ti) and cP(ti) are the count rates (compensated for the background) at the given time point for the anterior and posterior views respectively. CFP is a patient-specific calibration factor based on a baseline measurement of each patient, performed immediately after administration of ^177Lu-PSMA-617 and before the first voiding of the bladder. This factor is calculated according to the following equation:2 CFP=CA0⋅Cp0/AP, where AP is the administered activity. This factor represents the efficiency of the detector for the spatially distributed activity and intrinsically considers the self-attenuation of the γ photons by the body of the patient.
The excreted activity Aex at the time point ti was calculated as the difference of the whole-body activity at the previous time point ti − 1 (corrected for decay) and the whole-body activity at the time point ti. The whole extracted activity can then be calculated as a summation:3 Aex=∑j=1iAWBti−1e^−ln2/T1/2∙ti−ti−1−AWBti,
A 3″ × 3″-NaI (Tl) detector (Type 905-4) with multichannel analyzer and software (digiBASE, MAESTRO, Ortec, Oak Ridge, USA) was used as a measurement system. It was calibrated using americium-241, cobalt-57, cesium-137, and iodine-131 test sources, and regular quality checks were carried out. The shielded detector (collimator of 3 cm lead) was positioned 1 m above the floor, and the field of view covered the whole body of the patient. The energy window was set to 208 keV ± 27%, corresponding to approximately 3 × full width at half maximum of the energy resolution of the NaI (Tl) detector. The background was measured for 300 s without the presence of a patient. Patients were measured in anterior and posterior standing positions while holding arms close to the body at a distance of 2 m from the collimator surface. For all measurements, the acquisition time corrected for dead-time effects was set to 90 s. […] No further corrections (e.g., for pile-up or non-linearity) were applied. Statistical uncertainties of the count rate were below 1% for all measurements, as recommended by Hindorf et al.. Bi-exponential functions were fitted to the data, and the effective half-lives were calculated. The bi-exponential fit model was chosen after comparing the quality of fit of mono- and bi-exponential models using the Akaike criterion as described by Kletting et al..

[4] = design: method as in PMID 27089552; details: cited from earlier work; for Mean dose rate at 1 m: 23 patients, 7.5 GBq
[5] = discharge 24 h p. i., T1/2ind (value from the 48-h measurement point)
[6] = discharge 72 h p. i., T1/2ind, 25 patients (Department 2)
[7] = discharge 72 h p. i., T1/2max, 25 patients (Department 2)
[8] = discharge 72 h p. i., T1/2phys, 25 patients (Department 2)

In the case of `O=C([O-])CN1CCN(CC(=O)[O-])CCN(CC(=O)NCC2CCC(C(=O)N[C@@H](Cc3ccc4ccccc4c3)C(=O)NCCCC[C@H](NC(=O)N[C@@H](CCC(=O)O)C(=O)O)C(=O)O)CC2)CCN(CC(=O)[O-])CC1.[177Lu+3]` (stereo partly shown) [^177Lu-PSMA-617], the “Administered activity excreted within the first 6 h, mean” value [1] is given as 45%, the “Estimated dose to the public after 1 cycle, mean” value (“Estimated dose … mean” below) [2, 5] is given as 100 μSv and 99 μSv and the “Estimated dose to the public after 1 cycle, min” value (shortened to “Estimated dose … min”) [2, 5] is given as 25 μSv. For the same compound, the “Estimated dose to the public after 1 cycle, max” value (“Estimated dose … max” below) ([2]; discharge 24 h p. i., T1/2max) was 410 μSv, the “Estimated dose … mean” value ([2]; discharge 24 h p. i., T1/2max) was 208 μSv and the “Estimated dose … min” value ([2]; discharge 24 h p. i., T1/2max) was 75 μSv. The “Estimated dose … max” value ([2]; discharge 24 h p. i., T1/2phys) was 779 μSv, the “Estimated dose … mean” value ([2]; discharge 24 h p. i., T1/2phys) was 396 μSv and the “Estimated dose … min” value ([2]; discharge 24 h p. i., T1/2phys) was 142 μSv. The “Estimated dose … min” value ([2]; discharge 48 h p. i., T1/2ind) was 13 μSv, the “Estimated dose … max” value ([2]; discharge 48 h p. i., T1/2max) was 294 μSv and the “Estimated dose … mean” value ([2]; discharge 48 h p. i., T1/2max) was 139 μSv. For the same compound, the “Estimated dose … min” value ([2]; discharge 48 h p. i., T1/2max) was 49 μSv, the “Estimated dose … max” value ([2]; discharge 48 h p. i., T1/2phys) was 560 μSv and the “Estimated dose … mean” value ([2]; discharge 48 h p. i., T1/2phys) was 263 μSv. For the same compound, the “Estimated dose … min” value ([2]; discharge 48 h p. i., T1/2phys) was 93 μSv, the “Estimated dose … max” value [2, 6] was 204 μSv and the “Estimated dose … mean” value [2, 6] was 50 μSv. For the same compound, the “Estimated dose … min” value [2, 6] was 17 μSv, the “Estimated dose … max” value [2, 7] was 233 μSv and the “Estimated dose … mean” value [2, 7] was 105 μSv. The “Estimated dose … min” value [2, 7] was 49 μSv, the “Estimated dose … max” value [2, 8] was 443 μSv and the “Estimated dose … mean” value [2, 8] was 200 μSv. The “Estimated dose … min” value [2, 8] was 93 μSv, the “Expected dose to the public per cycle of therapy” value ([2]; human, in vivo) was “below 1 mSv” and the “Maximum dose to individual members of the public per treatment cycle” value ([2]; patient discharged after 72 h) was ~ 190 ± 36 μSv. The “Estimated dose to the public per cycle” value ([2]; physical half-life of lutetium-177 used for the calculation (conservative approach)) was “below 1 mSv”, the “Excreted activity Aex between given time point and previous time point, max” value ([3]; 2 h p. i.) was 2621 MBq and the “Excreted activity Aex between given time point and previous time point, mean” value ([3]; 2 h p. i.) was 1718 MBq. For the same compound, the “Excreted activity Aex between given time point and previous time point, min” value ([3]; 2 h p. i.) was 735 MBq, the “Overall excreted activity as percentage of administered activity, max” value (from here on “Overall excreted activity as percentage … max”) ([3]; 2 h p. i.) was 42% and the “Overall excreted activity as percentage of administered activity, mean” value (shortened to “Overall excreted activity as percentage … mean”) ([3]; 2 h p. i.) was 30%. The “Overall excreted activity as percentage of administered activity, min” value ([3]; 2 h p. i.) was 13%, the “Excreted activity Aex between given time point and previous time point, max” value ([3]; 4 h p. i.) was 1526 MBq and the “Excreted activity Aex between given time point and previous time point, mean” value ([3]; 4 h p. i.) was 1265 MBq. The “Excreted activity Aex between given time point and previous time point, min” value ([3]; 4 h p. i.) was 1060 MBq, the “Overall excreted activity as percentage … max” value ([3]; 4 h p. i.) was 62% and the “Overall excreted activity as percentage of administered activity, min” value ([3]; 4 h p. i.) was 30%. For the same compound, the “Excreted activity Aex between given time point and previous time point, max” value ([3]; 12 h p. i.) was 1323 MBq, the “Excreted activity Aex between given time point and previous time point, mean” value ([3]; 12 h p. i.) was 1155 MBq and the “Excreted activity Aex between given time point and previous time point, min” value ([3]; 12 h p. i.) was 1009 MBq. For the same compound, the “Overall excreted activity as percentage … max” value ([3]; 12 h p. i.) was 82%, the “Overall excreted activity as percentage of administered activity, min” value ([3]; 12 h p. i.) was 48% and the “Excreted activity Aex between given time point and previous time point, max” value ([3]; 24 h p. i.) was 474 MBq. For the same compound, the “Excreted activity Aex between given time point and previous time point, mean” value ([3]; 24 h p. i.) was 395 MBq, the “Excreted activity Aex between given time point and previous time point, min” value ([3]; 24 h p. i.) was 318 MBq and the “Overall excreted activity as percentage … max” value ([3]; 24 h p. i.) was 87%. The “Overall excreted activity as percentage … mean” value ([3]; 24 h p. i.) was 76%, the “Overall excreted activity as percentage of administered activity, min” value ([3]; 24 h p. i.) was 53% and the “Excreted activity Aex between given time point and previous time point, max” value ([3]; 48 h p. i.) was 265 MBq. The “Excreted activity Aex between given time point and previous time point, mean” value ([3]; 48 h p. i.) was 219 MBq, the “Excreted activity Aex between given time point and previous time point, min” value ([3]; 48 h p. i.) was 160 MBq and the “Overall excreted activity as percentage … max” value ([3]; 48 h p. i.) was 89%. For the same compound, the “Overall excreted activity as percentage … mean” value ([3]; 48 h p. i.) was 77%, the “Overall excreted activity as percentage of administered activity, min” value ([3]; 48 h p. i.) was 50% and the “Excreted activity Aex between given time point and previous time point, max” value ([3]; 72 h p. i.) was 82 MBq. For the same compound, the “Excreted activity Aex between given time point and previous time point, mean” value ([3]; 72 h p. i.) was 68 MBq, the “Excreted activity Aex between given time point and previous time point, min” value ([3]; 72 h p. i.) was 50 MBq and the “Overall excreted activity as percentage … max” value ([3]; 72 h p. i.) was 89%. The “Overall excreted activity as percentage … mean” value ([3]; 72 h p. i.) was 78%, the “Overall excreted activity as percentage of administered activity, min” value ([3]; 72 h p. i.) was 54% and the “Clearance of the unbound compound from the body” value ([3]; in words) was “rapidly cleared from the body”. The “Excreted activity over a period of 72 h (per therapy cycle and patient), average” value ([3]; of the administered 6.6 GBq, patient cohort 2) was “approximately 4.8 GBq”, the “Mean dose rate at 1 m” value ([4]; after 4 h) was 23 ± 6 μSv/h and the “Mean dose rate at 1 m” value ([4]; after 6 h) was 15 ± 4 μSv/h. For the same compound, the “Mean dose received by close family members” value ([4]; measured for 5 days post-injection with optically stimulated luminescence dosimeter, patients released 6 h p. i.) was 202 ± 43 μSv.
